Measurements taken from ChEMBL document CHEMBL1149000, “Effects of p-Methoxycinnamaldehyde from Star Anise and Related Cinnamic Acid Derivatives on Velvetleaf Germination” (J Nat Prod, 1986).

Experiments:
Abutilon theophrasti [1] = experiment: Herbicidal activity against velvetleaf assessed as seed germination at 2.5 mM after 4 days relative to control; assay type: functional
Abutilon theophrasti [2] = experiment: Herbicidal activity against velvetleaf assessed as seed germination at 1 mM after 4 days relative to control; assay type: functional
Abutilon theophrasti [3] = experiment: Herbicidal activity against velvetleaf assessed as seed germination at 5 mM after 4 days relative to control; assay type: functional
[4] = Toxicity in rat; assay type: organism-based; settings: in vivo
[5] = Inhibition of cAMP phosphodiesterase at 0.05 mM

For `OC/C=C/c1ccccc1` [CINNAMIC ALCOHOL], the Activity (Abutilon theophrasti [1]) was 0%, the Activity (Abutilon theophrasti [2]) was 73% and the Activity (Abutilon theophrasti [3]) was 0%.

Compound `COc1ccccc1/C=C/C=O` has an Activity (Abutilon theophrasti [1]) of 3%, an Activity (Abutilon theophrasti [2]) of 77% and an Activity (Abutilon theophrasti [3]) of 0%.

Compound `C/C=C/c1ccc(OC)cc1` [ANETHOLE] has an Activity (Abutilon theophrasti [1]) of 100%, an Activity (Abutilon theophrasti [2]) of 98% and an Activity (Abutilon theophrasti [3]) of 95%.

Work on `O=C/C=C/c1ccccc1` [CINNAMALDEHYDE] yielded an Activity (Abutilon theophrasti [1]) of 0%, an Activity (Abutilon theophrasti [2]) of 57% and an Activity (Abutilon theophrasti [3]) of 0%.

For `COc1ccc(/C=C/C(=O)O)cc1` [4-METHOXYCINNAMIC ACID], the Activity (Abutilon theophrasti [1]) was 83%, the Activity (Abutilon theophrasti [2]) was 107% and the Activity (Abutilon theophrasti [3]) was 83%.

Work on `O=C(O)/C=C/c1ccccc1` [CINNAMIC ACID] yielded an Activity (Abutilon theophrasti [1]) of 77%, an Activity (Abutilon theophrasti [2]) of 100% and an Activity (Abutilon theophrasti [3]) of 5%.

Work on `COc1ccc(/C=C/C=O)cc1` [PARA-METHOXY CINNAMALDEHYDE] yielded an Activity (Abutilon theophrasti [1]) of 8%, an LD50 [4] of over 5000 mg/kg and an Activity (Abutilon theophrasti [2]) of 83%. The Activity (Abutilon theophrasti [3]) was 1% and the inhibition [5] was 50%.
